In one experiment the target is T1, serotonin 1A receptor (Rattus norvegicus, UniProt P19327).
T1 construct: To the receptor fraction of the hippocampus were added a test compound and 0.5 nM of [^3H]; 8-hydroxy-dipropylaminotetralin; from tissue; host or cells: rat hippocampus membrane fraction
T1 sequence (P19327 1-422): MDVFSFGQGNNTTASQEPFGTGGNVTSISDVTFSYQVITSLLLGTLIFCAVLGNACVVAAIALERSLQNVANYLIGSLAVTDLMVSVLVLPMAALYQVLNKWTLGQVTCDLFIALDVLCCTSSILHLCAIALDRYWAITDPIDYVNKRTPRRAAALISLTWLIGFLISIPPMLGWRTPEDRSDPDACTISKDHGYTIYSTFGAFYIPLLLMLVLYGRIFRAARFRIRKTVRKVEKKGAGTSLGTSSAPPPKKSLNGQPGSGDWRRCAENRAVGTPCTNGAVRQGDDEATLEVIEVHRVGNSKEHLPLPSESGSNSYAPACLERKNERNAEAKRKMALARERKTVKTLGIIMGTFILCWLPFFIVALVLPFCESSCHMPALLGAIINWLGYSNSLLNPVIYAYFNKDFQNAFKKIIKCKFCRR
As to the kind of experiment: Binding test on [3H] 8-hydroxy-dipropylaminotetralin, hippocampus receptor fraction. Also noted: species or system SD rats. The note with it: rat hippocampus receptor fraction, 0.5 nM [3H] 8-OH-DPAT, room temperature 30 min; read-out: 5HT1.

Another experiment concerns the target T2, serotonin 2 receptor (Rattus norvegicus, UniProt P14842).
T2 construct: To the receptor fraction of the cerebral cortex were added a test compound and 0.3 nM of [^3H] ketanserin; from tissue; host or cells: rat cerebral cortex membrane fraction
As to the kind of experiment: Binding test on [3H] ketanserin, cerebral cortex receptor fraction. Also noted: species or system SD rats. The note with it: 0.3 nM [3H] ketanserin, 37° C. 15 min, read-out: 5HT2.

Results on 30 compounds are retold here after patent US6875761B2 (Eisai Co., Ltd., priority 1997, dated 2005).

Molecules are shown by their SMILES. Counter-ions that a name gives are not always drawn.

T2 sequence (P14842 whole entry): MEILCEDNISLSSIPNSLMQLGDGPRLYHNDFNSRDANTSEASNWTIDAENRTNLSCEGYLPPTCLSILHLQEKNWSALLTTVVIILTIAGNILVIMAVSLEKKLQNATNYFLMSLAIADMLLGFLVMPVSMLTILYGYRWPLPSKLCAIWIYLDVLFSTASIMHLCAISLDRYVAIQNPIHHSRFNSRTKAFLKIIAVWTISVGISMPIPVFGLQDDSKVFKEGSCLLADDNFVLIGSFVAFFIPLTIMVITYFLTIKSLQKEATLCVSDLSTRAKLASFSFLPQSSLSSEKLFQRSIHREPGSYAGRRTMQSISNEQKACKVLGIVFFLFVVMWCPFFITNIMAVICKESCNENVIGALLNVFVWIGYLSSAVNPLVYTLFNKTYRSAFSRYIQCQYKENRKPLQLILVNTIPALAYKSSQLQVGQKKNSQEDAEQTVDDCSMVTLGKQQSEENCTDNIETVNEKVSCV
Protocol for serotonin 2 receptor: Methysergide maleate was dissolved in distilled water before using.
Use was made of SD rats aged 6 to 8 weeks.
The rats were sacrificed by dcapitation to extirpate the cerebra.
Each mixture was homogenized by using a Teflon glass homogenizer and centrifuged as 1,000× g for 10 min. The supernatant thus obtained was further centrifuged at 20,000× g for 20 min. […] After centrifuging at 20,000× g for 20 min, the obtained precipitate was further suspended and centrifuged twice each in the same manner. […] This receptor fraction was stored at −80° C. until using.
To the receptor fraction of the cerebral cortex were added a test compound and 0.3 nM of [^3H] ketanserin and the resultant mixture was incubated at 37° C. for 15 min. Next, it was filtered through a glass filter with the use of a cell harvester. After washing the glass filter with 50 mM Tris hydrochloride (pH 7.4), the radioactivity of the receptor was measured with a liquid scintillation counter. The binding detected in the presence of 1 μM of methysergide was referred to as the nonspecific binding.
IC50 was calculated by the probit method, while Ki was determined in accordance with the following formula: Ki=IC50(1+c/Kd) wherein c represents the concentration of the radioisotope-labeled compound, and Kd represents the dissociation constant of the radioisotope-labeled compound with respect to the receptor determined by Scatchard's analysis.

Regarding `CCN1CCN(c2nc(-c3ccc(CCCOC)cc3)cc3ccccc23)CC1` [Example 333, 1-(4-ethylpiperazin-1-yl)-3-[4-(3-(methoxypropyl)phenyl]isoquinolinedihydrochloride], the Ki at serotonin 1A receptor is 17.1 nM; at serotonin 2 receptor it was 6.1 nM.

For `CCN1CCN(c2nc(-c3ccc(OCCOC)nc3)cc3ccsc23)CC1` [Example 269, 5-[2-(2-methoxyethoxy)pyridin-5-yl]-7-(4-ethylpiperazin-1-yl)-thieno[2,3-c]pyridine hydrochloride], the Ki at serotonin 1A receptor came to 15.5 nM; on serotonin 2 receptor, 58.4 nM.

`CCN1CCN(c2nc(-c3cnc(CCCO)s3)cc3ccccc23)CC1` [Example 171, 1-(1-ethylpiperazin-4-yl)-3-[2-(3-hydroxypropyl)thiazol-5-yl]isoquinoline oxalate]: the figures for the Ki on serotonin 1A receptor and at serotonin 2 receptor were 4.7 nM and 21.9 nM, respectively.

As to `CCN1CCN(c2nc(/C=C/c3ccccc3OCCO)cc3ccoc23)CC1` [Example 308, oxalate], the Ki at serotonin 1A receptor is 6.49 nM; at serotonin 2 receptor, 19.5 nM.

As for `CCN1CCN(c2nc(-c3ccc(OCCn4ccnc4)cc3)cc3ccccc23)CC1` [Example 56, 3-{4-[2-(1-Imidazonyl)Ethoxy]phenyl}-1-(4-Ethylpiperazin-1-Yl)Isoquinoline Hydrochloride], the Ki was 37.4 nM at serotonin 1A receptor and 59.5 nM on serotonin 2 receptor.

Take `CCN1CCN(c2nc(-c3ccc(S(=O)(=O)CCCF)cc3)cc3ccccc23)CC1` [Example 355, 1-(4-ethylpiperazin-1-yl)-3-[4-(3-fluoropropyl)sulfonylphenyl]isoquinoline dihydrochloride]: the Ki at serotonin 1A receptor was determined as 2.6 nM; on serotonin 2 receptor, 4.9 nM.

`CCN1CCN(c2nc(-c3ccc(OCC#N)cc3)cc3ccccc23)CC1` [Example 51, 3-(4-Cyanomethoxyphenyl)-1-(4-Ethylpiperazin-1-Yl)Isoquinoline Hydrochloride]: the Ki at serotonin 1A receptor came out at 103 nM; on serotonin 2 receptor, 1.87 nM.

For `CCN1CCN(c2nc(-c3ccc(CCCCO)nc3)cc3ccccc23)CC1` [Example 137, 1-(1-Ethylpiperazin-4-yl)-3-[2-(4-Hydroxybutyl)Pyridin-5-yl]Isoquinoline], the Ki at serotonin 1A receptor was 7.2 nM; on serotonin 2 receptor, 32.5 nM.

Turning to `CCN1CCN(c2nc(-c3ccc([C@@H]4C[C@@H](O)CCO4)cc3)cc3ccccc23)CC1` (relative stereo) [Example 402, 1-(4-Ethylpiperazin-1-yl)-3-[4-(trans-4-Hydroxytetrahydropyran-2-yl)Phenyl]Isoquinoline Dihydrochloride], the Ki at serotonin 1A receptor is 23.7 nM; at serotonin 2 receptor, 2.1 nM.

In the case of `CCN1CCN(c2nc(-c3ccc(CNS(=O)(=O)CC)cc3)cc3ccccc23)CC1` [Example 78, 3-(4-Ethylsulfonylaminomethylphenyl)-1-(4-Ethylpiperazin-1-Yl)Isoquinoline Hydrochloride], the Ki at serotonin 1A receptor is 0.56 nM; on serotonin 2 receptor, 1.9 nM.

In the case of `CCN1CCN(c2nc(-c3ccc(N4CCC(O)CC4)nc3)cc3ccccc23)CC1` [Example 152, 1-(4-ethylpiperazin-1-yl)-3-[2-(4-hydroxypiperidin-1-yl)pyridin-5-yl]isoquinoline trihydrochloride], the Ki turned out to be 6.1 nM on serotonin 1A receptor and 12.4 nM on serotonin 2 receptor.

Consider `CCN1CCN(c2nc(-c3ccc([C@H]4CC[C@@H](O)CC4)cc3)cc3ccccc23)CC1` [Example 397, 1-(4-Ethylpiperazin-1-yl)-3-[4-(cis-4-Hydroxycyclohexyl)Phenyl]Isoquinoline Dihydrochloride], for which the Ki on serotonin 1A receptor came to 53.3 nM; at serotonin 2 receptor, 0.9 nM.

As for `CCN1CCN(c2nc(-c3cc(F)c(OCCO)c(F)c3)cc3ccccc23)CC1` [Example 370, 1-(4-ethylpiperazin-1-yl)-3-[3,5-difluoro-4-(2-hydroxyethoxy)phenyl]isoquinoline], the Ki on serotonin 1A receptor was 23.9 nM; on serotonin 2 receptor, 3.4 nM.

On to `CCN1CCN(c2nc(-c3ccc(N4CCN(C(C)=O)CC4)nc3)cc3ccccc23)CC1` [Example 99, 3-[2-(4-Acetylpiperazin-1-yl)pyridin-5-yl]-1-(4-ethylpiperazin-1-yl)isoquinoline Trihydrochloride], for which the results for the Ki on serotonin 1A receptor and on serotonin 2 receptor were 3.5 nM and 6.2 nM, respectively.

On to `CCN1CCN(c2nc(-c3ccc(OCC(C)O)cc3)cc3ccoc23)CC1` (stereo in doubt) [Example 304, 7-(1-ethylpiperazin-4-yl)-5-[4-[(S)-2-hydroxypropoxy]phenyl)furo[2,3-c]pyridine dihydrochloride], for which the Ki was 15.4 nM at serotonin 1A receptor and 19.4 nM at serotonin 2 receptor.

In the case of `CCN1CCN(c2nc(C(O)c3ccc(OC)cc3)cc3ccccc23)CC1` (stereo not drawn) [Example 104, 3-[α-Hydroxy-(4-methoxybenzyl)]-1-(4-ethylpiperazin-1-yl)isoquinoline Oxalate], the Ki amounted to 109 nM on serotonin 1A receptor and 101 nM on serotonin 2 receptor.

In the case of `CCN1CCN(c2nc(-c3ccc(CCCO)c(Cl)c3)cc3ccsc23)CC1` [Example 257, 5-[4-(3-hydroxypropyl)-3-chlorophenyl]-7-(4-ethylpiperazin-1-yl)thieno[2,3-c]pyridine Oxalate], the results for the Ki at serotonin 1A receptor and at serotonin 2 receptor were 12.6 nM and 23.2 nM, respectively.

As to `CCN1CCN(c2nc(-c3ccc(OCCCS(C)(=O)=O)cc3)cc3ccccc23)CC1` [Example 55, 3-[4-(3-Methylsulfonpropoxy)Phenyl]-1-(4-Ethylpiperazin-1-Yl)Isoquinoline Hydorchloride], the Ki on serotonin 1A receptor was found to be 10.4 nM; at serotonin 2 receptor, 15.3 nM.

For the compound `CCNS(=O)(=O)c1ccc(-c2cc3ccccc3c(N3CCN(CC)CC3)n2)cc1` [Example 357, 1-(4-ethylpiperazin-1-yl)-3-[4-(N-ethylsulfamoyl)phenyl]isoquinoline dihydrochloride], the Ki on serotonin 1A receptor stood at 2.8 nM; on serotonin 2 receptor, 0.58 nM.

Take `CCN1CCN(c2nc(-c3cccc(OC)c3)cc3ccccc23)CC1` [Example 9, 1-(4-ethylpiperazin-1-yl)-3-(3-methoxyphenyl)isoquinone Dihydrochloride]: the figures for the Ki at serotonin 1A receptor and at serotonin 2 receptor were 57 nM and 24.5 nM, respectively.

`CCN1CCN(c2nc(-c3ccc(OCC(O)CO)cc3)cc3ccccc23)CC1` (stereo not drawn) [Example 337, 1-(4-ethylpiperazin-1-yl)-3-[4-(2,3-dihydroxypropoxy)phenyl]isoquinoline dihydrochloride]: the Ki on serotonin 1A receptor was 25.7 nM; on serotonin 2 receptor, 5.6 nM.

In the case of `CCN1CCN(c2nc(-c3ccc(C#N)cc3)cc3ccccc23)CC1` [Example 62, 3-(4-Cyanophenyl)-1-(4-Ethylpiperazin-1-Yl)Isoquinoline Hydrochloride], the Ki came to 14.8 nM on serotonin 1A receptor and 4 nM at serotonin 2 receptor.

With `CCN1CCN(c2nc(-c3ccc(OCCCO)cc3)cc3ccoc23)CC1` [Example 317, 7-(1-ethylpiperazin-4-yl)-5-[4-(3-hydroxypropoxy)phenyl]furo[2,3-c]pyridine dihydrochloride], the Ki at serotonin 1A receptor stood at 12.2 nM; on serotonin 2 receptor it was 105 nM.

For `CCN1CCN(c2nc(-c3ccc(O[C@H](C)CO)cc3)cc3sccc23)CC1` (stereo in doubt) [Example 463, 4-(4-ethylpiperazin-1-yl)-6-[4-(2-hydroxy-1-methylethoxy)phenyl]thieno[3,2-c]pyridine dihydrochloride], the Ki on serotonin 1A receptor amounted to 6.98 nM; at serotonin 2 receptor, 20.9 nM.

As for `CCN1CCN(c2nc(-c3ccc(CCCO)cc3)cc3ccsc23)CC1` [Example 432, 7-(4-ethylpiperazin-1-yl)-5-[4-(3-hydroxypropyl)phenyl]thieno[2,3-c]pyridine hydrochloride], the figures for the Ki at serotonin 1A receptor and at serotonin 2 receptor were 1.98 nM and 28.5 nM, respectively.

On to `CCN1CCN(c2nc(-c3ccc(OC(C)COC)nc3)cc3ccsc23)CC1` (stereo not drawn) [Example 267, 5-[2-(2-methoxyethoxy-2-methyl)pyridin-5-yl]-7-(4-ethylpiperazin-1-yl)thieno[2,3-c]pyridine Hydrochloride], for which the Ki on serotonin 1A receptor was 10.4 nM; on serotonin 2 receptor, 68.7 nM.

In the case of `CCN1CCN(c2nc(-c3ccc(C4=CCC(O)CC4)cc3)cc3ccsc23)CC1` (stereo not drawn) [Example 270, 5-[4-(4-hydroxycyclohexen-1-yl)phenyl]-7-(4-ethylpiperazin-1-yl)thieno[2,3-c]pyridine hydrochloride], the Ki on serotonin 1A receptor worked out at 43 nM; on serotonin 2 receptor, 30.3 nM.

Turning to `CCN1CCN(c2nc(-c3ccc(C(C)CCO)cc3)cc3ccccc23)CC1` (stereo not drawn) [Example 383, 1-(4-Ethylpiperazin-1-yl)-3-[4-(3-Hydroxy-1-Methylpropyl)Phenyl]Isoquinoline Oxalate], the Ki at serotonin 1A receptor is 7.4 nM; at serotonin 2 receptor, 3.4 nM.

For the compound `CCOCCCc1ccc(-c2cc3ccccc3c(N3CCN(CC)CC3)n2)cn1` [Example 142, 1-(1-Ethylpiperazin-4-yl)-3-[2-(3-Ethoxypropyl)Pyridin-5-yl]Isoquinoline Oxalate], the Ki on serotonin 1A receptor is 3.3 nM; on serotonin 2 receptor, 15.2 nM.

Regarding `CCN1CCN(c2nc(-c3ccc(CCC(C)(C)O)cc3)cc3ccccc23)CC1` [Example 388, 1-(4-Ethylpiperazin-1-yl)-3-[4-(3-Hydroxy-3-Methylbutyl)Phenyl]Isoquinoline Dihydrochloride], the Ki on serotonin 1A receptor was 21.5 nM; at serotonin 2 receptor it was 0.7 nM.
